Test results from PubChem BioAssay AID228 (DTP/NCI, 2004).
Where “and” joins values, the source holds several entries; their conditions need not be identical. Identical values can stand only once. Records with an inconclusive call do not appear.

System: BDF1 mice, Friend leukemia sc, tumor weight T/C
Test: NCI In Vivo Anticancer Drug Screen. Data for tumor model Friend Virus Leukemia (Solid) (subcutaneous) in B6D2F1 (BDF1) mice
Conditions: endpoint: mean tumor weight, higher = larger tumour
Procedure: The antitumor activity of compounds was measured in mice bearing transplantable tumors. Survival or tumor size were measured and the results are expressed as the measurement made in the treated group (T) divided by the measurement made in the vehicle treated control group (C). The tumor model used in this assay is Friend Virus Leukemia (Solid) (subcutaneous) in B6D2F1 (BDF1) mice

[1] = dose: 9.0 mg/kg/injection, schedule: Q01DX011 (sc), vehicle: steriod suspending solution
[2] = dose: 3.0 mg/kg/injection, schedule: Q01DX011 (ip), vehicle: carboxymethylcellulose (CMC)
[3] = dose: 25.0 mg/kg/injection, schedule: Q01DX011 (ip), vehicle: carboxymethylcellulose (CMC)
[4] = dose: 50.0 mg/kg/injection, schedule: Q01DX011 (ip), vehicle: carboxymethylcellulose (CMC)
[5] = dose: 100.0 mg/kg/injection, schedule: Q01DX011 (ip), vehicle: carboxymethylcellulose (CMC)

CC(C)(CC(=O)O)CC(=O)OCC(=O)[C@@]1(O)CC[C@H]2[C@@H]3CCC4=CC(=O)C=C[C@]4(C)[C@H]3[C@@H](O)C[C@@]21C
T/C [1]: 61 % of control
T/C (dose: 19.0 mg/kg/injection, schedule: Q01DX011 (sc), vehicle: steriod suspending solution): 58 % of control
T/C (dose: 37.5 mg/kg/injection, schedule: Q01DX011 (sc), vehicle: steriod suspending solution): 48 % of control
T/C (dose: 38.0 mg/kg/injection, schedule: Q01DX011 (sc), vehicle: steriod suspending solution): 50 % of control
T/C (dose: 75.0 mg/kg/injection, schedule: Q01DX011 (sc), vehicle: steriod suspending solution): 46 % of control and 47 % of control
T/C (dose: 150.0 mg/kg/injection, schedule: Q01DX011 (sc), vehicle: steriod suspending solution): 46 % of control and 47 % of control
T/C (dose: 300.0 mg/kg/injection, schedule: Q01DX011 (sc), vehicle: steriod suspending solution): 37 % of control and 38 % of control
T/C (dose: 600.0 mg/kg/injection, schedule: Q01DX011 (sc), vehicle: steriod suspending solution): 31 % of control

CC(C)Sc1nc(N)nc2nc[nH]c12
T/C [2]: 97 % of control
T/C [3]: 14 % of control
T/C [4]: 2 % of control

Nc1nc(SCc2ccccc2Cl)c2[nH]cnc2n1
T/C (dose: 1.0 mg/kg/injection, schedule: Q01DX011 (ip), vehicle: carboxymethylcellulose (CMC)): 88 % of control
T/C [2]: 77 % of control
T/C (dose: 6.0 mg/kg/injection, schedule: Q01DX011 (ip), vehicle: carboxymethylcellulose (CMC)): 67 % of control
T/C (dose: 12.0 mg/kg/injection, schedule: Q01DX011 (ip), vehicle: carboxymethylcellulose (CMC)): 28 % of control
T/C [3]: 18 % of control
T/C [4]: 7 % of control
T/C [5]: 2 % of control

CC(=O)OCC(=O)[C@@]1(O)CC[C@H]2[C@@H]3CCC4=CC(=O)CC[C@]4(C)[C@H]3[C@@H](O)C[C@@]21C
T/C (dose: 2.25 mg/kg/injection, schedule: Q01DX011 (sc), vehicle: steriod suspending solution): 267 % of control
T/C (dose: 8.5 mg/kg/injection, schedule: Q01DX011 (sc), vehicle: steriod suspending solution): 73 % of control
T/C [1]: 88 % of control
T/C (dose: 17.0 mg/kg/injection, schedule: Q01DX011 (sc), vehicle: steriod suspending solution): 105 % of control
T/C (dose: 30.0 mg/kg/injection, schedule: Q01DX011 (sc), vehicle: steriod suspending solution): 44 % of control
T/C (dose: 60.0 mg/kg/injection, schedule: Q01DX011 (sc), vehicle: steriod suspending solution): 32 % of control
T/C (dose: 68.0 mg/kg/injection, schedule: Q01DX011 (sc), vehicle: steriod suspending solution): 60 % of control
T/C (dose: 90.0 mg/kg/injection, schedule: Q01DX011 (sc), vehicle: steriod suspending solution): 29 % of control

Nc1nc(N)c(N=Nc2ccccc2)c(=O)[nH]1
T/C [4]: 74 % of control
T/C [5]: 70 % of control
T/C (dose: 200.0 mg/kg/injection, schedule: Q01DX011 (ip), vehicle: carboxymethylcellulose (CMC)): 60 % of control

CC1(C)CC(C)(c2ccccc2)c2ccccc21 (stereo unspecified)
T/C (dose: 62.5 mg/kg/injection, schedule: Q01DX011 (ip), vehicle: carboxymethylcellulose (CMC)): 68 % of control
T/C (dose: 125.0 mg/kg/injection, schedule: Q01DX011 (ip), vehicle: carboxymethylcellulose (CMC)): 70 % of control
T/C (dose: 250.0 mg/kg/injection, schedule: Q01DX011 (ip), vehicle: carboxymethylcellulose (CMC)): 67 % of control
T/C (dose: 500.0 mg/kg/injection, schedule: Q01DX011 (ip), vehicle: carboxymethylcellulose (CMC)): 25 % of control

CS(=O)(=O)OCCCCCCCCCOS(C)(=O)=O
T/C (dose: 18.75 mg/kg/injection, schedule: Q01DX011 (ip), vehicle: carboxymethylcellulose (CMC)): 81 % of control
T/C (dose: 37.5 mg/kg/injection, schedule: Q01DX011 (ip), vehicle: carboxymethylcellulose (CMC)): 51 % of control
T/C (dose: 75.0 mg/kg/injection, schedule: Q01DX011 (ip), vehicle: carboxymethylcellulose (CMC)): 49 % of control

Cn1c(O)c(N=NC(N)=S)c2ccccc21
T/C (dose: 15.0 mg/kg/injection, schedule: Q01DX011 (ip), vehicle: saline): 110 % of control
T/C (dose: 30.0 mg/kg/injection, schedule: Q01DX011 (ip), vehicle: saline): 105 % of control
T/C (dose: 60.0 mg/kg/injection, schedule: Q01DX011 (ip), vehicle: saline): 108 % of control
T/C (dose: 120.0 mg/kg/injection, schedule: Q01DX011 (ip), vehicle: saline): 75 % of control
T/C (dose: 240.0 mg/kg/injection, schedule: Q01DX011 (ip), vehicle: saline): 94 % of control
